From patent publication US11292803B2, “Bioreducible N-oxide-based probes for imaging of hypoxia” (THE BOARD OF TRUSTEES OF THE UNIVERSITY OF ILLINOIS, priority 2018, dated 2022)

Legend:
[1] = system: CYP450-rich rat liver microsomes
Procedure: FIG. 4. […] (a) Representative PA image (770 nm) of reaction mixtures incubated under normoxic or hypoxic conditions for 2 h, then quenched with an equal volume of acetonitrile. Dashed lines indicate positioning of FEP tubes. (b) Change in PA signal (770 nm) produced after 2 h incubation of HyP-1 (10 μM) with rat liver microsomes (RLM) (200 μg/mL) and NADPH (50 μM) in normoxic and hypoxic conditions (n=3). (c) Ratiometric fluorescence turn-on after 2 h incubation of HyP-1 (2 μM) with RLM ([…]) and NADPH (50 μM) in normoxic or hypoxic conditions (n=3). (d) Normalized fluorescent turn-on after 1 h hypoxic incubation of HyP-1 (2 μM) with RLM (100 μg/mL) and NADPH (50 μM) under various conditions. Statistical significance represents a comparison to the hypoxic control (n=6). Results with error bars are represented as mean±SD. **p<0.01, ***p<0.001, ****p<0.0001.
The responsiveness of HyP-1 to hypoxia was first evaluated in vitro via fluorescence by incubating HyP-1 with CYP450-rich rat liver microsomes under atmospheric (normoxic) and oxygen-deprived (hypoxic) conditions. […] The PA response of HyP-1 under identical conditions was evaluated by quenching the reaction mixtures with an equal volume of acetonitrile and transferring the solutions into fluorinated ethylene propylene (FEP) tubes, which were inserted into the centre of a 2 cm thick agarose-based tissue-mimicking phantom.
For hypoxic assays only, cuvettes were sealed with septa, then evacuated and filled with N2 (×3) prior to use. Potassium phosphate buffer (0.1 M, pH 7.4) and NADPH (0.5 mM) were degassed with N2 for 30 minutes. For all assays, phosphate buffer (889 μL) rat liver microsomes (200 μg/mL) and HyP-1 (1 μL, 2 mM in DMSO) were added to the cuvette and pre-incubated at 37° C. for 5 minutes. NADPH (100 μL) was added and incubation continued with fluorescence spectra acquisition occurring at the indicated time points. Spectra were acquired according to the following parameters: λex=672, emission range=685-800 nm and λex=750, emission range=760-900 nm. For BIPY and DPI experiments, the compounds were added from stock solutions (1 M BIPY in DMSO and 50 mM DPI in deionized water) following the 5 minute preincubation, and the buffer volume was adjusted such that the total volume in the cuvette was equal to 1 mL. Deactivated microsomes were prepared by heating in a 45° C. water bath for 30 minutes.

[2] = pH dependence of absorbance and emission spectra; type: physicochemical; details: buffers pH 4.8 to 12.0
Procedure: FIG. 13. (a) Absorbance and (b) fluorescence spectra of HyP-1 (2 μM) in 20 mM BRB buffers containing 50% v/v EtOH (pH range 4.8-12.0).
FIG. 14. (a) Absorbance and (b) fluorescence spectra of red-HyP-1 (2 μM) in 20 mM BRB buffers containing 50% v/v EtOH (pH range 4.8-12.0).
(§1) In addition to Fe(II), the response of HyP-1 to a variety of alkali, alkaline earth and transition metals was also determined. […] To further evaluate the stability of HyP-1, a 10 μM solution of the probe was exposed to ambient light and temperature for up to 5 days. Additionally, a 10 μM solution of HyP-1 supplemented with human plasma was incubated at 37° C. for 3 hours. […] As mentioned previously, a major limitation of 2-nitroimidazole-based hypoxia probes is their susceptibility to oxygen-independent reduction via two-electron processes, such as by bacterial nitroreductases. […] Finally, the photostability of both HyP-1 and red-HyP-1 was evaluated via continuous PA image acquisition at 770 nm over the course of 1 hour.
0.1 M potassium phosphate buffer (pH 7.4) was prepared by combining stock solutions of KH2PO4 (1 M, 0.990 mL) and K2HPO4 (1 M, 4.010 mL) and diluting to a final volume of 50 mL. […] Fine adjustments to pH were made via addition of 0.1 M HCl or 0.1 M NaOH. pH values were determined using a Mettler-Toledo SevenCompact pH meter calibrated using pH 4.0, 7.0 and 10.0 standard buffers at 25° C.

[3] = system: E. coli cell lysates; experiment: Incubation with bacterial cell lysates; type: biochemical; details: 37° C., 2 h
Procedure: FIG. 15. […] For the nitroreductase experiment, HyP-1 (2 μM) was incubated in the presence of nitroreductase (0.5 μg/mL) and NADH (100 μM) in 0.1 M potassium phosphate buffer (pH 7.4) at 37° C. for 2 h. For the bacterial experiment, bacteria were grown overnight, and cells were lysed via sonication. The suspension was centrifuged at 4000 rpm for 10 min, and the supernatant was removed. HyP-1 (2 μM) was incubated with cell lysate solution (1 mL) at 37° C. for 2 h.
as §1

[4] = system: 4T1 tumour allografts; experiment: In vivo fluorescence imaging of hypoxic tumour model; set-up: species or system BALB/c mice; details: intratumoural injection 50 μL, 100 μM; after 1 hour
Procedure: Tumour allografts were generated via subcutaneous implantation of 4T1 cells into the right flanks of BALB/c mice. The tumours were allowed to grow to volumes of 300-400 mm^3 prior to imaging. As an initial study to visualize the intratumoural conversion of HyP-1 to red-HyP-1 in real time, ratiometric fluorescence imaging was performed immediately following administration of HyP-1 (50 μL, 100 μM) via intratumoural or subcutaneous (control) injection.
All in vivo imaging experiments were performed with the approval of the Institutional Animal Care and Use Committee of the University of Illinois at Urbana-Champaign, following the principles outlined by the American Physiological Society on research animal use. Female mice (5-6 weeks old) were acquired from The Jackson Laboratory. A suspension of 0.5×10^6 cells in serum-free medium containing 50% v/v matrigel (100 μL) was subcutaneously injected into the right flank of each mouse. Tumours with volumes of 300-400 mm^3 formed after 12-15 days. […]
Images were obtained using epi-fluorescence with excitation filters of 675 and 745 and corresponding emission filters of 720 and 800, respectively. […] ROIs of equal area were drawn around signals, and the total radiant efficiency in each ROI was determined. Ratiometric signal was calculated by determining the ratio of radiant efficiency corresponding to 800 nm and 720 nm emissions.

Row | SMILES | conversion by heat-inactivated rat liver microsomes [1] | pH dependence of absorbance and emission spectra [2] | conversion to red-HyP-1 [3] | ratiometric fluorescent turn-on, tumour tissue versus subcutaneous control [4] [fold] | emission maximum ([1]; authentic solution, as RLM reaction mixture (aqueous buffer)) [nm]
1 | CC[N+]([O-])(CC)c1ccc(-c2cc(-c3ccccc3)c3n2[B-](F)(F)[N+]2=C(c4ccc(OC)cc4)C=C(c4ccccc4)C2=N3)cc1 [HyP-1, 4-(5,5-difluoro-7-(4-methoxyphenyl)-1,9-diphenyl-5H-5λ^4,6λ^4-dipyrrolo[1,2-c:2′,1′-f][1,3,5,2]triazaborinin-3-yl)-N,N-diethylaniline oxide] | converted to red-HyP-1 | no significant pH dependence | minimal conversion | 5.6 | 
2 | CCN(CC)c1ccc(-c2cc(-c3ccccc3)c3n2[B-](F)(F)[N+]2=C(c4ccc(OC)cc4)C=C(c4ccccc4)C2=N3)cc1 [Red-HyP-1, 4-(5,5-difluoro-7-(4-methoxyphenyl)-1,9-diphenyl-5H-5λ^4,6λ^4-dipyrrolo[1,2-c:2′,1′-f][1,3,5,2]triazaborinin-3-yl)-N,N-diethylaniline] |  | no significant pH dependence |  |  | 785
